A short description of this data set: physchem. The following applies: water, 25 °C, thermodynamic from solid. As for the experimental part:
The suspension was equilibrated at 25° C. for 2 hours with aliquots sampled at 30, 60 and 120 min; the pH was measured at each time point. The suspension was then filtered through a glass fibre C filter. The filtrate was then diluted by an appropriate factor. Quantitation was by HPLC with reference to a standard solution of approximately 0.2 mg/mL in CH3CN:water. Different volumes of the standard, diluted and undiluted sample solutions were injected. […]

Values after ≈ are worked out from the molar mass of the structure shown.

Consider `C=CC(=O)N1CCC[C@@H](n2nc(-c3ccc(Oc4ccccc4)cc3)c3c(N)ncnc32)C1` [Compound 1, 1-((R)-3-(4-amino-3-(4-phenoxyphenyl)-1H-pyrazolo[3,4-d]pyrimidin-1-yl)piperidin-1-yl)prop-2-en-1-one], for which the solubility – broadly, the concentration that dissolves in the medium under given conditions – at 30 min is around 1640 µg/mL (≈ 3.72 mM); the solubility at 60 min was around 1640 µg/mL (≈ 3.72 mM); the solubility at 120 min is around 1690 µg/mL (≈ 3.84 mM).

Source of the values: patent US20180072739A1, “CO-CRYSTALS OF A BRUTON'S TYROSINE KINASE INHIBITOR” (Pharmacyclic LLC, priority 2015, published 2018).
